Patent publication US12691092B2, “Method for reducing cutaneous skin scarring by pre-emptive priming and compounds and compositions for its implementation” (SOS SCIENCE OF SKIN LTD, priority 2020, dated 2026)

Experiments:
[1] = system: VEGF-A; test: Gene expression analysis of VEGF-A; format: in vivo, human; conditions: week 4, groups 1-2 and 4, p<0.05
Experimental: A double-blind randomized placebo-controlled trial was conducted using a temporal punch-biopsy model. The punch biopsy and topical application methodology used in the study is illustrated in FIG. 1, namely showing pre-injury pre-emptive priming (7-days), pre-injury pre-emptive priming (3-days), day of injury (immediate application on day 0), post-injury (delayed 2 weeks post injury) including biopsy time points and time of topical applications. Each group applied both placebo and topical formulations twice daily for the duration of the study until week 8, with only the starting time point differing between groups Participants were split into 4 groups (n=10 in each group) in order to compare different modes (timings) of commencement of the topical application: • Group-1: Pre-emptive Priming (7-days): pre-injury • Group-2: Pre-emptive Priming (3-days): pre-injury • Group-3: Immediate (0-day): day-of-injury • Group-4: Delayed (14-days): post-injury Clinical quantitative devices were used to objectively monitor cutaneous healing at weekly intervals and punch biopsies were performed on day 0 (uninjured skin) and at weeks 4 and 8 for protein and gene expression analyses. […] Excisional skin biopsies in upper arms were evaluated weekly with multiple quantitative devices over an 8-week period. […]

[2] = system: human skin scarring model; test: Viscoelasticity of scars by clinical elastin probe; format: in vivo
Experimental: (§1) A double-blind randomized placebo-controlled trial was conducted using a temporal punch-biopsy model. The punch biopsy and topical application methodology used in the study is illustrated in FIG. 1, namely showing pre-injury pre-emptive priming (7-days), pre-injury pre-emptive priming (3-days), day of injury (immediate application on day 0), post-injury (delayed 2 weeks post injury) including biopsy time points and time of topical applications. Each group applied both placebo and topical formulations twice daily for the duration of the study until week 8, with only the starting time point differing between groups Participants were split into 4 groups (n=10 in each group) in order to compare different modes (timings) of commencement of the topical application: • Group-1: Pre-emptive Priming (7-days): pre-injury • Group-2: Pre-emptive Priming (3-days): pre-injury • Group-3: Immediate (0-day): day-of-injury • Group-4: Delayed (14-days): post-injury Clinical quantitative devices were used to objectively monitor cutaneous healing at weekly intervals and punch biopsies were performed on day 0 (uninjured skin) and at weeks 4 and 8 for protein and gene expression analyses. In the trial, topical EGCG and a placebo topical were applied twice daily for the duration of the trial until week 8 with only the starting time points differing between groups. […]

[3] = system: human skin scarring model; test: Skin thickness by high frequency ultrasound (HFUS); format: in vivo; conditions: significant in group-1 week 8 (p=0.002); group-2 weeks 6, 8; group-3 weeks 5-8; group-4 weeks 3, 5-8 (p<0.01)
Experimental: as §1, with “[…] Structural changes in” for “In”, “scars were assessed clinically by high frequency ultrasound (HFUS)” for “trial, topical EGCG”, “elasticity probe, and elastin and collagen markers.” for “a placebo topical were applied twice daily for the duration of the trial until week 8 with only the starting time points differing between groups.”

[4] = system: VEGF-A; test: VEGF-A angiogenic immunohistochemical marker in scar biopsies; format: in vivo, human
Experimental: A double-blind randomized placebo-controlled trial was conducted using a temporal punch-biopsy model. The punch biopsy and topical application methodology used in the study is illustrated in FIG. 1, namely showing pre-injury pre-emptive priming (7-days), pre-injury pre-emptive priming (3-days), day of injury (immediate application on day 0), post-injury (delayed 2 weeks post injury) including biopsy time points and time of topical applications. Each group applied both placebo and topical formulations twice daily for the duration of the study until week 8, with only the starting time point differing between groups Participants were split into 4 groups (n=10 in each group) in order to compare different modes (timings) of commencement of the topical application: • Group-1: Pre-emptive Priming (7-days): pre-injury • Group-2: Pre-emptive Priming (3-days): pre-injury • Group-3: Immediate (0-day): day-of-injury • Group-4: Delayed (14-days): post-injury Clinical quantitative devices were used to objectively monitor cutaneous healing at weekly intervals and punch biopsies were performed on day 0 (uninjured skin) and at weeks 4 and 8 for protein and gene expression analyses. In the trial, topical EGCG and a placebo topical were applied twice daily for the duration of the trial until week 8 with only the starting time points differing between groups. Clinical and experimental analysis involved use of non-invasive devices as well as protein and gene studies. Excisional skin biopsies in upper arms were evaluated weekly with multiple quantitative devices over an 8-week period. […] In order to further support these findings and the clinical findings, two well-known and established angiogenic immunohistochemical markers; CD31 and VEGF-A were used.

## O=C(OC1Cc2c(O)cc(O)cc2OC1c1cc(O)c(O)c(O)c1)c1cc(O)c(O)c(O)c1 (single isomer, unassigned; (-)) [EGCG, (-)-epigallocatechin-3-gallate]
[1]
  VEGF-A gene expression, EGCG-treated samples compared to placebo: significant reductions
[2]; group-1 weeks 1, 7, 8, group-2 week 8, group-3 week 8, group-4 week 7
  Elasticity (viscoelasticity), EGCG-treated arms compared to placebo-treated arms: significantly increased
[2]; week 8, p=0.029
  Elasticity, between group comparison, group-1 vs group-4: significantly increased elastin more than group-4
[3]
  HFUS skin thickness, EGCG scars compared to placebo scars: lower
[4]; week 4, all groups, p<0.01
  VEGF-A in EGCG-treated samples compared to placebo: significantly down-regulated
[4]; week 4, 3-day priming vs delayed, p=0.01
  VEGF-A: greater reduction in group-2 compared to group-4: 56%
[4]; week 4, 7-day priming vs delayed, p=0.005
  VEGF-A: greater reduction in group-1 compared to group-4: 51%
[4]; week 8, groups 1-3, p<0.01
  VEGF-A in EGCG-treated samples: significant reduction
